These results are taken from patent US20240376517A1 (THE UNIVERSITY COURT OF THE UNIVERSITY OF EDINBURCH, priority 2021, published 2024).

Data set [1] relates to co-cultures of E0771 cells and IL-2-activated CD8+ T cells. Put plainly: Drug screening, image-based phenotypic screen with H5. Type of data set: cell-based, mouse. As to conditions: drug at working concentration plus IL-2 100 U mL^−1, 3 h. The protocol:
Drug screening. E0771 (750 cells/well) and freshly isolated murine CD8+ T cells (6,000 cells/well) were plated in 384-well plates as described above. […] H5 (20 μM) and Hoechst 33342 (1 μM) was added for 1 h at 37° C., washed with PBS and imaged under ImageXpress™ XLS (Molecular Devices) using KRB (10% FBS) buffer as media. Fluorescent images (4 sites/well) were acquired under a 40× objective using 405 nm (Hoechst) and 488 nm (H5) excitation wavelengths and data was analysed with MetaXpress software using the Custom Module Editor. Briefly, nuclei were used as seeds to create a pseudo-cell area and granzyme B positive puncta were detected using a top-hat filter (pixel size: 10, circle shape) followed by an average filter (3×3 pixel).

Data set [2] has as its target T1, human recombinant granzyme B (Homo sapiens, UniProt P10144). In words: Reactivity of NIR probes with granzyme B. The format is biochemical. The protocol:
With the probes in hand (Table 4) they were tested for their reactivity with human recombinant granzyme B to identify a lead candidate. Each probe was tested at a concentration of 25 μM against 20 nM granzyme B and fluorescence was recorded over 2 hours at 37° C. (λex: 620 nm, λem: 660 nm).

Data set [3] has as its target T1, human recombinant granzyme B. Put plainly: HPLC/MS analysis of probe cleavage by granzyme B in urine. Type of data set: biochemical. As to conditions: after 1 h with granzyme B present. The method, then: (§1) Following incubation, the samples were diluted with MeOH, centrifuged and the supernatant injected into the HPLC/MS. Samples were eluted with 0.1% HCOOH in H2O (A) and 0.1% HCOOH in MBCN (B), with a gradient of 0 to 100% B over 5 minutes and an additional isocratic period of 3 minutes with a flow rate of 1.5 mL min^−1. Reactions were monitored from 220-700 nm and percentage cleaved was determined by comparing peak area of the cleaved probe against the intact probe on MassLynx software.

Data set [4] is classed as in vitro ADME, human. The protocol: as §1, with “Probe (H5 or R7) (25 μM) was incubated with human recombinant granzyme B (15 nM) in Granzyme B buffer for 1.5 h at 37° C. Following” for “Following”
We first sought to address the stability of probe H5 and R7 and in urine from 3 healthy donors to ensure no cross-reactivity occurred with any other biomolecules that may be present in all urine samples. To do this we monitored the fluorescence response of probe H5 and R7 in urine with and without spiked granzyme B (15 nM) and also assessed stability via HPLC analysis. […] (FIG. 11). It should also be noted that HPLC-MS confirmed the cleavage of probe H5 and R7 after the aspartic acid residue (the natural granzyme B cleavage site).

Data set [5] concerns the target T2, hGzmB (Homo sapiens, UniProt P10144). Put plainly: HPLC conversion/cleavage of probes by hGzmB. Type of data set: biochemical. As to conditions: for cleavage at 100 nM for 24 h: 100 nM enzyme. The source says:
FIG. 5. HPLC traces of the probe H5 before and after reaction with hGzmB. HPLC chromatogram and mass spectrometry analysis of the probe H5 before and after reaction with increasing concentrations of hGzmB. Mcalc. (intact probe): 1246.6 [M+Na^+]; Mcalc. (cleaved probe): 747.2 [M+H^+].

Data set [6] has as its system E0771 cells alone or in co-culture with CD8+ T cells. In words: AZD5363 follow-up: cell death and H5 staining by flow cytometry. Type of data set: cell-based, mouse. The protocol:
FIG. 10. […] Co-cultures were stained with probe H5 (5 μM) and AF647-Annexin V (10 nM). Excitation/emission wavelengths: 488 nm/525 nm (for probe H5), 633/670 nm (for AF647-Annexin V). c) Percentages of E0771 cells that were double-stained with probe H5 and AF647-Annexin V under the experimental conditions described in a). Data presented as mean values±SEM (n=3).
A general note: Flow cytometry measures light scatter and fluorescence of single cells or particles in a stream.

Data set [7] deals with T2, hGzmB. Put plainly: Fluorescence assays with recombinant hGzmB. The format is biochemical. The method, then: Fluorescence assays with recombinant enzymes. Fluorescence-based assays with enzymes were performed in buffer-1 (50 mM Tris, 100 mM NaCl, pH 7.4) for GzmB, pro-GzmB, GzmA and HNE, or buffer-2 (25 mM HEPES, 0.1% CHAPS, 10 mM DTT, pH 7.5) for caspases and other enzymes. Probes (25 μM) were added to enzymes (20 nM or at the indicated concentrations) in 384-well plates and their fluorescence emission was recorded at 450 nm (for AMC) or 510 nm (for BODIPY) at 37° C. using a Synergy H1 Hybrid reader (BioTek). In experiments with Ac-IEPD-CHO (50 μM), the inhibitor was pre-incubated for 1 h with GzmB before addition of any probe.

In the next data set the test system is GzmB. As to conditions: cited from earlier work.
Another data set relates to hGzmB (100 nM). As to conditions: human, up to 24 h.
For data set [8], the system named is recombinant hGzmB (20 nM). Put plainly: buffer-1 (50 mM Tris, 100 mM NaCl, pH 7.4). As to conditions: human, 37° C., up to 2 h.
A short description of data set [9]: urine from 3 healthy donors, without granzyme B. As to conditions: human, 37° C., up to 3 hours.
The subject of data set [10] is human recombinant granzyme B (15 nM). Put plainly: urine from 3 healthy donors with spiked granzyme B (15 nM). As to conditions: 37° C., up to 3 hours.

As usually defined, the Km is the substrate concentration at which the rate is half of its maximum. The kcat is the number of substrate molecules converted per active site and unit of time at saturation.

*1 amine or outer side, *2 acyl side, *3 side chain or, on linkers, in order; H or OH if unused. Where a SMILES comes first, the peptide text is derived from it. Where no end group is shown, it is not given here. [ ]: non-standard residue; d: D form. The star is where a group is joined. ξ: configuration not given here. BODIPY(FL) = CC1=CC(C)=[N+]2C1=Cc1ccc(CCC(=O)*)n1[B-]2(F)F; X1 = CN(C)c1ccc(/N=N/c2ccc(C(=O)*)cc2)cc1; Ethylenediamine = C(CN[*:2])N[*:1]; Ile(3ξ) = CCC(C)[C@H](N)C(=O)O; AMC = Cc1cc(=O)oc2cc(N*)ccc12

T2 sequence (P10144 21-247): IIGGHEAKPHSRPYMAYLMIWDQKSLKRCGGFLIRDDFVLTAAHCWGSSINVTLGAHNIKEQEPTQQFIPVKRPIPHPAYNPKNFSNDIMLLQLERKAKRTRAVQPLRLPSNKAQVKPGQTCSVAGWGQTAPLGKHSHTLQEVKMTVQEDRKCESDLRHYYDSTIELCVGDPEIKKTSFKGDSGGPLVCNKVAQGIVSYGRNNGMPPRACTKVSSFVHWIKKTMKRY
T1 sequence (P10144 21-247): as above

As to `CC(=O)O[C@@]12CO[C@@H]1C[C@H](O)[C@@]1(C)C(=O)[C@H](O)C3=C(C)[C@@H](OC(=O)[C@H](O)[C@@H](NC(=O)OC(C)(C)C)c4ccccc4)C[C@@](O)([C@@H](OC(=O)c4ccccc4)[C@H]21)C3(C)C` [C11, Docetaxel], the “H5 fluorescence signal compared to IL-2 only controls” value in data set [1] is recorded as “Increased fluorescence signals”.
As to `C#CC[C@H](c1nc2cc(Cl)ccc2c(=O)n1Nc1ccccc1)N(CCCN)C(=O)c1cccc(Cl)c1F` [C12, ARQ621], the “H5 fluorescence signal compared to IL-2 only controls” value in data set [1] is “Increased fluorescence signals”.
Consider `C/C(=C\c1csc(C)n1)[C@@H]1C[C@@H]2O[C@]2(C)CCC[C@H](C)[C@H](O)[C@@H](C)C(=O)C(C)(C)[C@@H](O)CC(=O)O1` [C13, Epothilone B], for which the “H5 fluorescence signal compared to IL-2 only controls” value in data set [1] is “Increased fluorescence signals”.
Consider `CO[C@@]12[C@H](COC(N)=O)C3=C(C(=O)C(C)=C(N)C3=O)N1C[C@@H]1N[C@@H]12` [C18, Mitomycin C], for which the “H5 fluorescence signal compared to IL-2 only controls” value in data set [1] is on record as “Increased fluorescence signals”.
As for `CC(=O)N[C@@H](CSC(=O)[C@]1([C@@H](O)C(C)C)NC(=O)[C@H](C)[C@@H]1O)C(=O)O` [C30, Lactacystin], the “H5 fluorescence signal compared to IL-2 only controls” value in [1] is “Increased fluorescence signals”.
Take `CCC(C)[C@H](NC(=O)CCCCCN1/C(=C/C=C/C=C/C2=[N+](C)c3ccc(S(=O)(=O)[O-])cc3C2(C)C)C(C)(C)c2cc(S(=O)(=O)[O-])ccc21)C(=O)N[C@@H](CCC(=O)O)C(=O)N1CCC[C@H]1C(=O)N[C@@H](CC(=O)O)C(=O)N[C@@H](C)C(=O)N[C@@H](CC(C)C)C(=O)NCCOCCOCCOCCOCCNC(=O)C1CCN(S(=O)(=O)c2ccccc2-c2c3ccc(=[N+]4CCc5ccccc54)cc-3oc3cc(N4CCc5ccccc54)ccc23)CC1` (some centres unmarked) [R7]: the “conversion from intact to cleaved (HPLC-MS)” value in data set [2] (within 2 hours) was found to be 100%. The “conversion to the cleaved probe in urine” value in [3] is given as at most 99%. In addition, the “probe cleaved in the urine sample alone (HPLC)” value in data set [4] is recorded as “less than 1%”.
For the compound `CC[C@H](C)[C@H](NC(=O)CCC1=[N+]2C(=Cc3c(C)cc(C)n3[B-]2(F)F)C=C1)C(=O)N[C@@H](CCC(=O)O)C(=O)N1CCC[C@H]1C(=O)N[C@@H](CC(=O)O)C(=O)NCCNC(=O)c1ccc(/N=N/c2ccc(N(C)C)cc2)cc1` [T1] ({BODIPY(FL)}-IEPD-{Ethylenediamine-X1}), the “cleavage at 20 nM enzyme for 2 h” value on hGzmB [5] (2 h) is reported as below 5%. For the same compound, at hGzmB [5], the “cleavage at 100 nM for 24 h” value worked out at 15%.
AZD5363 [C5]: the “H5 fluorescence signal compared to IL-2 only controls” value is on record as “Increased fluorescence signals” in data set [1] and “brightest H5 fluorescence staining” in data set [1] (listed as AZD5363). Also, the “cancer cell death and H5 staining” value in data set [6] (AZD5363 on its own, E0771 cells) was “did not induce significant cancer cell death nor cause H5 staining”. Moreover, the “cancer cell death and H5 fluorescence emission” value in [6] (combination with 100 U mL^−1 IL-2, CD8+ T cell-E0771 co-cultures) was “caused significant cancer cell death and H5 fluorescence emission”.
For the compound Ac-IEPD-aldehyde, at hGzmB [7] (Ac-IEPD-CHO 50 μM pre-incubated 1 h with GzmB), the “effect of inhibitor on fluorescence response of H5 to hGzmB” value is “drastically reduced the fluorescence response of H5”. Also, the “effect of inhibitor pre-incubation on fold change of R7” value in data set [2] (granzyme B pre-incubated with inhibitor) is listed as “fold change decreased”.
As for Ac-IEPD-{AMC} [listing 1 of 2 here], the LoD on hGzmB [7] (limit of detection of hGzmB) is 25 nM. The “cleavage at 20 nM enzyme for 2 h” value at hGzmB [5] (2 h) is recorded as below 1%. At hGzmB [5], the “cleavage at 100 nM for 24 h” value was 10%. For the same compound, in the data set with GzmB, the Michaelis-Menten constant (Km) is 160 µM and the kcat was 0.5 s⁻¹.
In the case of Ac-IEPD-{AMC} [listing 2 of 2 here], the cleaved bond result in the data set with hGzmB (100 nM) is listed as “D-AMC”. For the same compound, in data set [8], the not cleaved is <1% cleavage at 20 nM enzyme for 2 h.
For the compound “H5m (IEFDAL; also: FRET labels, positions not given here)”, the “HPLC conversion (20 nM hGzmB, 2 h)” value with hGzmB [5] (20 nM hGzmB, 2 h) is listed as 70%.
For the compound IEFDAL, in data set [8], the cleaved bond entry is “Asp-Ala”.
For “IEPD-Dabcyl ({BODIPY(FL)}-IEPD-{Ethylenediamine-X1}; SMILES CC[C@H](C)[C@H](NC(=O)CCC1=[N+]2C(=Cc3c(C)cc(C)n3[B-]2(F)F)C=C1)C(=O)N[C@@H](CCC(=O)O)C(=O)N1CCC[C@H]1C(=O)N[C@@H](CC(=O)O)C(=O)NCCNC(=O)c1ccc(/N=N/c2ccc(N(C)C)cc2)cc1)”, the not cleaved in [8] is <5% cleavage at 20 nM enzyme for 2 h.
For IEPDAG, the cleaved bond entry in data set [8] is “Asp-Ala”.
The same measure, in the same setting: next, IEPDRL: “Asp-Arg”; IEPDSG: “Asp-Ser”.
For IEPDSL, the cleaved bond entry in [8] was “Asp-Ser”.
Consider IEPDWL, for which the cleaved bond entry in data set [8] is “Asp-Trp”.
On the same count and under the same terms, next, IEPDWR: “Asp-Trp”.
For Ile-Glu-Pro-Asp-Ala-Leu [R7], the not cleaved entry in data set [9] was “less than 1% of both probes had been cleaved whilst in the urine sample alone”. Further, the cleaved bond entry in [8] and in data set [10] was “aspartic acid-Ala” each time.
With “{BODIPY(FL)}-[Ile(3ξ)]EPDAL-{Ethylenediamine-X1} (SMILES CCC(C)[C@H](NC(=O)CCC1=[N+]2C(=Cc3c(C)cc(C)n3[B-]2(F)F)C=C1)C(=O)N[C@@H](CCC(=O)O)C(=O)N1CCC[C@H]1C(=O)N[C@@H](CC(=O)O)C(=O)N[C@@H](C)C(=O)N[C@@H](CC(C)C)C(=O)NCCNC(=O)c1ccc(/N=N/c2ccc(N(C)C)cc2)cc1) [H5]”, in [9], the not cleaved entry was “less than 1% of both probes had been cleaved whilst in the urine sample alone”. Besides, the cleaved bond entry is on record as “Asp-Ala” in data set [8] and “aspartic acid-Ala” in data set [10].
